Results on three compounds are retold here after patent publication US11859169B2, “Nano-ligand for promoting cell adhesion and regeneration of macrophages and method of promoting cell adhesion and regeneration of macrophages by using the same” (Korea University Research and Business Foundation, priority 2020, dated 2024).

In the assay the test system is Macrophages (RAW 264.7). The experiment in a line: adhesion structure assembly-mediated M2 phenotype under ROCK, myosin II or actin polymerization inhibition. Type of assay: cell-based. The following applies: M2-polarizing medium; for reduction of Arg-1 immunofluorescence on the magnet side / reduction of adherent macrophage area on the magnet side / reduction of adherent macrophage aspect ratio on the magnet side: 36 hours, 50 μM Y27632, 10 μM blebbistatin.

Consider `C=C1[C@@H](C)[C@H]2[C@H](Cc3ccccc3)NC(=O)[C@]23[C@H](OC(C)=O)/C=C/[C@@](C)(O)C(=O)[C@@H](C)C/C=C/[C@H]3[C@@H]1O` [cytochalasin D], for which the “decreases in the area, aspect ratio, and Arg-1 fluorescence of the adherent macrophages” value (2 μg/mL cytochalasin D) was “clearly observed”.
With `C[C@@H](N)[C@H]1CC[C@H](C(=O)Nc2ccncc2)CC1` [Y27632], the “reduction of Arg-1 immunofluorescence on the magnet side” value is 29%, the “reduction of adherent macrophage area on the magnet side” value was found to be 32% and the “reduction of adherent macrophage aspect ratio on the magnet side” value is reported as 33%.
As for `Cc1ccc2c(c1)C(=O)C1(O)CCN(c3ccccc3)C1=N2` (stereo not shown) [blebbistatin], the “reduction of Arg-1 immunofluorescence on the magnet side” value came out at 29%, the “reduction of adherent macrophage area on the magnet side” value is on record as 33% and the “reduction of adherent macrophage aspect ratio on the magnet side” value is on record as 31%.
